Results published in patent US6448405B1, “Steroid receptor modulator compounds and methods” (Ligand Pharmaceuticals Incorporated, priority 1994, dated 2002).

Columns and labels:
[1] = target: T1, human glucocorticoid receptor (GR) (Homo sapiens, UniProt P04150); experiment: Co-transfection assay, GR antagonist activity, CV-1 cells (pRShGR); format: cell-based; conditions: antagonist mode; for GR Antagonist CV-1 Cells Efficacy (%): Table 4, % maximal inhibition; for IC50: dexamethasone at its EC50, read-out: GR Antagonist CV-1 Cells Potency
T1 construct: expressed in transfected cells; host or cells: CV-1 cells, transient transfection
T1 sequence (P04150 1-777): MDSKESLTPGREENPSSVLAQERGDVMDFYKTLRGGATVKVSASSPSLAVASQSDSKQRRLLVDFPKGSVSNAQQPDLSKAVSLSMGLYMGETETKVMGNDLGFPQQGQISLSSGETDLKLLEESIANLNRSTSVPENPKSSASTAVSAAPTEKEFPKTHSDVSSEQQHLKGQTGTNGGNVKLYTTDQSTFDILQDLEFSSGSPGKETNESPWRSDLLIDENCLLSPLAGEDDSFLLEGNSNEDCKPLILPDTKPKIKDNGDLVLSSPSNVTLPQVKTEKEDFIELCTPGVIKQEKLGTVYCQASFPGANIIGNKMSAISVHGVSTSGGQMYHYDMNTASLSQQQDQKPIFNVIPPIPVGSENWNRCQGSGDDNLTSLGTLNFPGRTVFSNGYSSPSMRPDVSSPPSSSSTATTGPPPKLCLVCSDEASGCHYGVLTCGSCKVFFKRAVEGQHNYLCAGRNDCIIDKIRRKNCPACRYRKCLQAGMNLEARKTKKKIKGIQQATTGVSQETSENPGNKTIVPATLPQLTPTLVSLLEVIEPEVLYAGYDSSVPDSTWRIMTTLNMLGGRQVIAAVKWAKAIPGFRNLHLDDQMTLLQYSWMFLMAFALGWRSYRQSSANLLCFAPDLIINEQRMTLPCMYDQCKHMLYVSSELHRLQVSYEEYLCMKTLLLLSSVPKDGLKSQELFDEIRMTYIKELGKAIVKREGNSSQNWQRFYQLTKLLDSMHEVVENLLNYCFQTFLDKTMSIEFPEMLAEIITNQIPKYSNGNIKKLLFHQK

[2] = target: T2, human glucocorticoid receptor alpha (GRα) (Homo sapiens, UniProt P04150); experiment: GR binding assay, baculovirus extract, [3H] dexamethasone; conditions: competition with [3H] dexamethasone, 4° C., 16 hours; read-out: GR Binding K1
T2 construct: made in house; crude extract used
T2 sequence (P04150 1-777): T1 sequence (P04150 1-777)

Structure (SMILES)	GR Antagonist CV-1 Cells Efficacy (%) [1] [%]	IC50 [1] [µM]	Ki [2] [µM]
CC1=CC(C)(C)Nc2ccc3c(c21)C(c1ccccc1)Oc1ccccc1-3 (racemic) [Compound 161, (R/S)-1,2-Dihydro-2,2,4-trimethyl-5-phenyl-5H-chromeno[3,4-f]quinoline]	97	0.6	0.137
CC1=CC(C)(C)Nc2ccc3c(c21)C(c1cccc(C(F)(F)F)c1)Oc1ccccc1-3 (racemic) [Compound 195, (R/S) 1,2-Dihydro-2,2,4-trimethyl-5-[3-(trifluoromethyl)phenyl]-5H-chromeno[3,4-f]quinoline]	96	0.59	0.026
